Columns and labels:
[1] = molecular target: T1, Dihydrofolate reductase (Mus musculus) (UniProt P00375); conditions: L1210
T1 sequence (whole entry): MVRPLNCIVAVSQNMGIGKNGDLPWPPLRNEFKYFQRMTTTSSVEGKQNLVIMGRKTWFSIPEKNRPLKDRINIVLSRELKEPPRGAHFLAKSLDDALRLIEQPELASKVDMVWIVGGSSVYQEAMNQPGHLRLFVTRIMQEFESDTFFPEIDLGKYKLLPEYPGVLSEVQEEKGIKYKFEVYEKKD
Description: Concentration of inhibitor to decrease binding of [3H]MTX radioligand to Dihydrofolate reductase from L1210 cells by 50%.

[2] = molecular target: Dihydrofolate reductase (Lactobacillus casei) (UniProt P00381); conditions: Lacticaseibacillus casei
Description: Tested for 50% reversible inhibition of Lactobacillus casei dihydrofolate reductase (spectrophotometric assay).

[3] = molecular target: Dihydrofolate reductase (Lactobacillus casei) (UniProt P00381); conditions: Lacticaseibacillus casei; remark: listed apart in the source
Description: Concentration of inhibitor required to decrease binding of [3H]MTX radioligand to Lactobacillus casei dihydrofolate reductase by 50%.

Sequence of Dihydrofolate reductase (Lactobacillus casei) (P00381 whole entry): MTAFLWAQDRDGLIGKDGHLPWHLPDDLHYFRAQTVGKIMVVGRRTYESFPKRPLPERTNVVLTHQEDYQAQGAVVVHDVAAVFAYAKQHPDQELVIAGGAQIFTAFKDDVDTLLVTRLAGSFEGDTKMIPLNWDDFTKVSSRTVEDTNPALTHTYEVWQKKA

| ID50 [1] | ID50 [2] | ID50 [3] | SMILES |
| --- | --- | --- | --- |
| 11 nM | 23 nM | 122 nM | CN(Cc1cnc2nc(N)nc(N)c2n1)c1ccc(C(=O)NC(CCCCN)C(=O)O)cc1 (centres undefined) |
| 11 nM | 14 nM | 45 nM | CN(Cc1cnc2nc(N)nc(N)c2n1)c1ccc(C(=O)NC(CCCCNC(=O)OCc2ccccc2)C(=O)O)cc1 (centres undefined) |
| 9.8 nM | 4.5 nM | 31 nM | CN(Cc1cnc2nc(N)nc(N)c2n1)c1ccc(C(=O)NC(CCCCNC(=O)CI)C(=O)O)cc1 (centres undefined) |
